According to ChEMBL document CHEMBL3638997, “5-alkynyl-pyrimidines” (2013):

Biological target: Phosphatidylinositol 4,5-bisphosphate 3-kinase catalytic subunit alpha isoform (Homo sapiens, UniProt P42336)
Assay: Filter-Binding-Assay: PI3Kalpha assay described herein provides IC50 values indicating the activity of the compounds inhibiting PI3 kinase alpha activity Inhibition of PI3 kinase is expected to be indicative of activity in treating conditions of excessive or anomalous cell proliferation, such as cancers. See also J. A. Engelman, Nature Reviews Cancer, 2009, 9, 550-562; A. Carnero, Expert Opin. …

Sequence of Phosphatidylinositol 4,5-bisphosphate 3-kinase catalytic subunit alpha isoform (P42336 whole entry, canonical isoform): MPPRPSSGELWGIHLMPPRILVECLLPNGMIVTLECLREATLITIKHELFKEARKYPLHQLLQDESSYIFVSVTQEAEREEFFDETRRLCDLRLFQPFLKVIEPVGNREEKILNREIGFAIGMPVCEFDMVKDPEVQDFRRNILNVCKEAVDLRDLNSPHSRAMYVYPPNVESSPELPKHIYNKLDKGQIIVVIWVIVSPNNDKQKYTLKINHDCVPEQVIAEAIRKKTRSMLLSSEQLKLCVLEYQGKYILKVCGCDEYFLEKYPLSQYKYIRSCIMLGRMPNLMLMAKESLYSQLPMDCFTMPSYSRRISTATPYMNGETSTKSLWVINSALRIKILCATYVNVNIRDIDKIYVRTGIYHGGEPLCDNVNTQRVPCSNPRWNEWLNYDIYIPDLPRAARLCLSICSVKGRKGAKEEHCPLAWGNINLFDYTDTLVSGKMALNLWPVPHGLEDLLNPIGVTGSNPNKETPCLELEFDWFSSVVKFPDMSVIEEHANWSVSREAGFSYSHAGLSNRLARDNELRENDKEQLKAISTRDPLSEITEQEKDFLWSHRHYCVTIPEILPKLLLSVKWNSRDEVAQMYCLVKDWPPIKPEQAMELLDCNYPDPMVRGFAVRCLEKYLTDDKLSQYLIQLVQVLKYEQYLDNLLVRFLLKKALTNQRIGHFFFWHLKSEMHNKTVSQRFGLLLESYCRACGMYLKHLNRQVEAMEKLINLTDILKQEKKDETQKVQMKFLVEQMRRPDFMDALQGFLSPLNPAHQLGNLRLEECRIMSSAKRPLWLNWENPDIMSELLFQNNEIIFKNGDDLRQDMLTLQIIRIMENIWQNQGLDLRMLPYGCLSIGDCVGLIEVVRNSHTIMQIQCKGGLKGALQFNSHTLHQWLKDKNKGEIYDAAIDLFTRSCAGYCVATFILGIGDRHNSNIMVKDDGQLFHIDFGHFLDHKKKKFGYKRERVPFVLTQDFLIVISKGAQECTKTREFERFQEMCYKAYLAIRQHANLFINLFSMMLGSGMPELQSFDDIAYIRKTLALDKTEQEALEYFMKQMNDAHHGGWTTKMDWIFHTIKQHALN

IC50: 15 nM
SMILES: CCc1ncnc(N2CCC(O)(CC)CC2)c1C#Cc1ccc(N)nc1
